From patent publication US8708045B2, “Multifunctional boronic acid crosslinking agents and associated methods” (Halliburton Energy Services, Inc., priority 2010, dated 2014)

Experiment: Visual solubility of 4-vinylphenyl boronic acid with sorbitol as solubilizing agent
Type: physicochemical
Protocol: In this example, sorbitol was used as an illustrative solubilizing agent to improve the solubility of 4-vinylphenyl boronic acid. A stock solution of 20 g of sorbitol in 200 mL of deionized water was prepared to give a sorbitol concentration of 0.55 M. In several plastic sealable containers was placed 11-15 mg of the boronic acid (maximum of 0.1 mmol in each container), and a variety of solutions were added to the containers, sometimes with pH adjustment. Thereafter, the containers were vortex mixed for 5 minutes, and solubility was analyzed visually.

**Q.** With `C=Cc1ccc(B(O)O)cc1` [4-vinylphenyl boronic acid] as the compound, how does the “Soluble?” value (Sample # 1: 10 mL deionized H2O, 11-15 mg boronic acid, vortex 5 minutes, visual) read?
**A.** The value was “no”.

**Q.** And the “Soluble?” value (Sample # 2: 10 mL stock sorbitol (0.55 M))?
**A.** The value was “yes”.

**Q.** What about the “Soluble?” value (Sample # 3: 10 mL stock sorbitol, pH = 14) of the same compound?
**A.** Its value is “yes”.

**Q.** What about the “Soluble?” value (Sample # 4: 200 μL stock sorbitol, 5 mL deionized H2O) of the same compound?
**A.** The value was “no”.

**Q.** And the “Soluble?” value (Sample # 5: 5 mL deionized H2O, pH = 12.3)?
**A.** The value was “yes”.

**Q.** And the “Soluble?” value (Sample # 6: 1 mL stock sorbitol, 5 mL deionized H2O)?
**A.** The value was “no”.

**Q.** And the “Soluble?” value (Sample # 7: 2 mL stock sorbitol, 6 mL deionized H2O)?
**A.** The value was “no”.

**Q.** And the “Soluble?” value (Sample # 8: 200 μL stock sorbitol, 5 mL deionized H2O, pH = 10.6)?
**A.** The value was “no”.

**Q.** And the “Soluble?” value (Sample # 9: 2 mL stock sorbitol, 6 mL deionized H2O, pH = 11.0)?
**A.** The value was “yes”.

**Q.** What about the “Soluble?” value (Sample # 10: 2 mL stock sorbitol, 10 mL deionized H2O, pH = 10.4) of the same compound?
**A.** The value was “yes”.

**Q.** And the “Soluble?” value (Sample # 11: 10 mL deionized H2O, pH = 9.8)?
**A.** The value was “no”.

**Q.** And the “Soluble?” value (Sample # 12: 2 mL stock sorbitol, 10 mL deionized H2O, pH = 9.2)?
**A.** Its value is “no”.

**Q.** What about the “Soluble?” value (Sample # 13: 2 mL stock sorbitol, 10 mL deionized H2O, pH = 9.4) of the same compound?
**A.** Its value is “yes”.
